Tested on: mitochondrial reactive oxygen species generation (mtROS)
Assay: Mitochondrial reactive oxygen species generation 24 hours post-CCI, focal TBI model in piglets
Type: in vivo
Conditions: p<0.0001 vs placebo
Experimental: Study Design: A blinded, placebo controlled proof of concept trial of CMX-2043 was conducted in four-week-old piglets (8-10 kg). […] Sixteen piglets (n=16) were designated into three cohorts: 1) Controlled cortical impact (CCI) at the rostral gyrus treated with a bolus of CMX-2043 (n=5), 2) CCI injured animals treated with placebo (n=5) and 3) sham animals (n=6). CMX-2043 treated animals received an intravenous loading bolus of CMX-2043 (13.4 mg/kg) 1 hour post-TBI and a 4.5 mg/kg bolus at 13 hours post-TBI. Subjects were intubated, ventilated and anesthesia maintained on isoflurane (1.0%). Buprenorphine (0.02 mg/kg IM) was administered for analgesia immediately following intubation. Monitors recorded oxygen saturation, heart rate, respiration rate, rectal temperature, and end tidal CO2. […] All piglets were sacrificed between 24-25 hours post-TBI.
Mitochondrial Respiration and ROS Production: Twenty four hours post-CCI the ipsilateral penumbra and mirrored contralateral cortex were harvested. The rate of oxygen consumption was recorded via high-resolution Oroboros Oxygraph-2k™ with a specific Substrate-Uncouple-Inhibitor-Titration Protocol (SUIT). […] Maximal reserve capacity of the electron transfer system (ETSCI+CII) was measured by titrating the protonophore carbonyl cyanide p-(trifluoro-methoxy) phenylhydrazone (FCCP). […]

CC(NC(=O)C(CCC(=O)O)NC(=O)CCCCC1CCSS1)C(=O)O [CMX-2043, N—(R)-lipoyl-glutamylalanine]
Mitochondrial ROS (mtROS) generation (contralateral): 5.13±1.67 H2O2/(μmol O2/s*mg) | Mitochondrial ROS (mtROS) generation (ipsilateral): 8.28±1.47 H2O2/(μmol O2/s*mg)
